This note sets out measurements from patent US8691865B2 (AbbVie Inc., priority 2008, dated 2014).

One assay deals with human Cav2.2 (Homo sapiens, UniProt Q00975). Kind of assay: Assessment of calcium channel activity using FLIPR (Ca2+ influx in IMR32 cells). It is filed as cell-based.
Sequence of human Cav2.2 (Q00975 whole entry): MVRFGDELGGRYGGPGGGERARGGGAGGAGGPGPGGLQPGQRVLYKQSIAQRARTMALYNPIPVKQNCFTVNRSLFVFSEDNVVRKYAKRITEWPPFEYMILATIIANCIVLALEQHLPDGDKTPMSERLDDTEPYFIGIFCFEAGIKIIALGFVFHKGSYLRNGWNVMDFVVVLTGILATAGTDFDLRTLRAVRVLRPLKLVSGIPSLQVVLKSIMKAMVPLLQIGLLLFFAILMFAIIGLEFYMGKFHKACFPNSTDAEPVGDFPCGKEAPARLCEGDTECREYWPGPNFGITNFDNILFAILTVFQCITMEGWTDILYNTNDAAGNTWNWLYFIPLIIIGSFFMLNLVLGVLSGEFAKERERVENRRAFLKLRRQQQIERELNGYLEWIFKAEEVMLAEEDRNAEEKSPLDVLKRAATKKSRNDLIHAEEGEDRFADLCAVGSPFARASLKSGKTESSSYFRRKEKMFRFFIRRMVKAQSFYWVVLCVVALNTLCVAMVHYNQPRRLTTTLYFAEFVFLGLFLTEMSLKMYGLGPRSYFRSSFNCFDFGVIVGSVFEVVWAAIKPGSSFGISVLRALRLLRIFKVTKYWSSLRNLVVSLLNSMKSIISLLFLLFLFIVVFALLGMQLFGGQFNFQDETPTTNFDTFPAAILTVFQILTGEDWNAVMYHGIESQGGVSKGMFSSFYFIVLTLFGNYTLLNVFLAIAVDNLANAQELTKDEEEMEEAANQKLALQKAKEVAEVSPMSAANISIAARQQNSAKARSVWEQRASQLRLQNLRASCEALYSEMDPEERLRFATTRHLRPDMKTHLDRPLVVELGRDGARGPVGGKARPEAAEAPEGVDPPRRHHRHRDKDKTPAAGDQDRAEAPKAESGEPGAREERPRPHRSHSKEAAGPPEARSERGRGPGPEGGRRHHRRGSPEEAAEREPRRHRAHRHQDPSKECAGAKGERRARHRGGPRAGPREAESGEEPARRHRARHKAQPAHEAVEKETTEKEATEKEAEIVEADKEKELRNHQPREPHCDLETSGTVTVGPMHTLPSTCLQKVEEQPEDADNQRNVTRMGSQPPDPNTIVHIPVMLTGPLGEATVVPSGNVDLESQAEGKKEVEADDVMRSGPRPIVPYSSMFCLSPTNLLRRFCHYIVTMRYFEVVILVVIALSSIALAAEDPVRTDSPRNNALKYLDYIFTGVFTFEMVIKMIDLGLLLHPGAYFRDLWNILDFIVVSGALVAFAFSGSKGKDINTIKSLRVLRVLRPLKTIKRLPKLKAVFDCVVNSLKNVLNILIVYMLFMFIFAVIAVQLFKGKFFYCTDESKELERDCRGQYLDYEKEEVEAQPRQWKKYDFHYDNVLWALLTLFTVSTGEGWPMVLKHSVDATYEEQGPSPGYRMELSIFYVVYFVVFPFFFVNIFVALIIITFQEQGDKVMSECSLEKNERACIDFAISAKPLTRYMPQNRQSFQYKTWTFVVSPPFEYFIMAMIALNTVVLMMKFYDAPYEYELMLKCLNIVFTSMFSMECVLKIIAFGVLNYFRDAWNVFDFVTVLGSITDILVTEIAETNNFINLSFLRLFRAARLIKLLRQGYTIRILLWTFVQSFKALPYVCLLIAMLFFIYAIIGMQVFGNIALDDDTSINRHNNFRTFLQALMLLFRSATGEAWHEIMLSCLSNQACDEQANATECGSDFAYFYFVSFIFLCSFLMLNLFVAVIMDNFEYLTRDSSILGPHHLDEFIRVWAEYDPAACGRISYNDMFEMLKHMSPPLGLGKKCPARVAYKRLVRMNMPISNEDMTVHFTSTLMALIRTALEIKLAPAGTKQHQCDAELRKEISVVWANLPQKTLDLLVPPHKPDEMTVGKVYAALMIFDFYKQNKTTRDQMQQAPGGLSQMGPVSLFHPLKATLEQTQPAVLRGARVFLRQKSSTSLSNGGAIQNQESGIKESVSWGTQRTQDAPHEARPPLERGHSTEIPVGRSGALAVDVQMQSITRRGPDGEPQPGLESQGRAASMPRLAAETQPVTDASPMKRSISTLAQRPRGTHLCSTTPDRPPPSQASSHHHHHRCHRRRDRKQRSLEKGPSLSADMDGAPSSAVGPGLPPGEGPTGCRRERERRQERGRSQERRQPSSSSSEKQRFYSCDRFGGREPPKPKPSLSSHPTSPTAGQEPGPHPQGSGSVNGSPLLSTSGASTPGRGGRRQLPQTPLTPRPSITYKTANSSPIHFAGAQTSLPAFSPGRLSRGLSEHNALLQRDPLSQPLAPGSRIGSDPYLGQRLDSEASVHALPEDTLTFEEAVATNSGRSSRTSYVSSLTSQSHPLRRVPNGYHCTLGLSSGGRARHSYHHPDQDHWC
Sequence of human Cav2.2 (P54289 25-956 partner limits assumed): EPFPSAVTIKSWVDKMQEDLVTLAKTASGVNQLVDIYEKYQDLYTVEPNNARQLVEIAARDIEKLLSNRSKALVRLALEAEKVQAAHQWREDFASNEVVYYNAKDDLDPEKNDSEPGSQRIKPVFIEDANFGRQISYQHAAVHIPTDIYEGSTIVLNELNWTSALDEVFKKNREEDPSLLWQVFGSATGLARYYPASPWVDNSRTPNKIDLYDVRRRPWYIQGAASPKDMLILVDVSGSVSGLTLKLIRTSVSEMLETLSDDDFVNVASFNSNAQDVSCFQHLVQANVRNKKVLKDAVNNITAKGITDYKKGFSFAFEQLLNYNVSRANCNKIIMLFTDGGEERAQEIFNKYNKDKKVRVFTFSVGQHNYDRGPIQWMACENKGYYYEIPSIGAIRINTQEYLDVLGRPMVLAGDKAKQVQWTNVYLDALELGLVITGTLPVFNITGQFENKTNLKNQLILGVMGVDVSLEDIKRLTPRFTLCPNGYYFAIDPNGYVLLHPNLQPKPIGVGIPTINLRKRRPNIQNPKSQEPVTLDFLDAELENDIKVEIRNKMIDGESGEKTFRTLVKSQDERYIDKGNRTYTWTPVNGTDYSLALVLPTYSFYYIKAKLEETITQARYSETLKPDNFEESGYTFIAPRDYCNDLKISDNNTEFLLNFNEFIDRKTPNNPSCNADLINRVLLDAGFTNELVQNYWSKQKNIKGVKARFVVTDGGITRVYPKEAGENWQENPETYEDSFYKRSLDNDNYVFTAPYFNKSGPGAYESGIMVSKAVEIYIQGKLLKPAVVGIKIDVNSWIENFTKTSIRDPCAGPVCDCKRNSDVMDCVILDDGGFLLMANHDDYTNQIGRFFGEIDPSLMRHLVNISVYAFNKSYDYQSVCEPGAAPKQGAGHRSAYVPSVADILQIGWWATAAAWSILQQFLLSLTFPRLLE
Sequence of human Cav2.2 (P54289 957-1103 partner limits assumed): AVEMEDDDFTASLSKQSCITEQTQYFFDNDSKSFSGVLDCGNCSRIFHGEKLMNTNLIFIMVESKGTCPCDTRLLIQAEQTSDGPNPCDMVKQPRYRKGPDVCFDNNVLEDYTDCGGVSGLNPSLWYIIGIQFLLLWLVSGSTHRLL
Sequence of human Cav2.2 (P54284 whole entry partner): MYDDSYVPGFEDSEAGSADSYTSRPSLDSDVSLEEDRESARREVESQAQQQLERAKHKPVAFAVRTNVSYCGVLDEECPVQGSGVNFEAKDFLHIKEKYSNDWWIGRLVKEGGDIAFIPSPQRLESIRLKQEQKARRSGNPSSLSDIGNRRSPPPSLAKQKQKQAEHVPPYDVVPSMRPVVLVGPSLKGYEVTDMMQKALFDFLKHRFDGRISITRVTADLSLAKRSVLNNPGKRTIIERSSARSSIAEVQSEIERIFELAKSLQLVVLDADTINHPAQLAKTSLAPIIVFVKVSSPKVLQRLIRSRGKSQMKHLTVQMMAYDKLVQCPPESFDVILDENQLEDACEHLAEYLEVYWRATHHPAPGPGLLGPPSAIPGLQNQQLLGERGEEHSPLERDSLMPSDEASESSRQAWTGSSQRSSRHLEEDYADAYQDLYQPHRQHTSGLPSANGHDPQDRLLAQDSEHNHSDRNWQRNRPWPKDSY
Conditions: not given
The gist of the method: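 Human neuroblastoma IMR32 cells were seeded at 1−1.2×10^5 cells/well and cultured 48 h at 37 °C before FLIPR calcium influx measurement. Percent inhibition at each concentration was calculated against the no-inhibitor signal, and IC50 came from sigmoidal dose-response fits.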
The term IC50 denotes the concentration needed to halve the response being measured. `FC(F)(F)c1cccc(N2C[C@H]3CC[C@H](NCc4ccn[nH]4)[C@H]3C2)n1` [Example 663, (3aR,4S,6aS)-N-(1H-pyrazol-5-ylmethyl)-2-[6-(trifluoromethyl)pyridin-2-yl]octahydrocyclopenta[c]pyrrol-4-amine]: the IC50 stood at 1.89 µM.
Same read-out and setting: the value for `O=C(N[C@H]1CC[C@H]2CN(Cc3cccc(C(F)(F)F)c3)C[C@H]21)C(C1CCCCC1)C1CCCCC1` [Example 54, 2,2-dicyclohexyl-N-{(3aS,4S,6aR)-2-[3-(trifluoromethyl)benzyl]octahydrocyclopenta[c]pyrrol-4-yl}acetamide] was 0.46 µM; that for `CN[C@H](C(=O)N[C@H]1CC[C@@H]2CN(c3ccc(OC(F)(F)F)cc3)C[C@@H]21)C(C)C` [Example 756, N^2-methyl-N-{(3aR,4S,6aS)-2-[4-(trifluoromethoxy)phenyl]octahydrocyclopenta[c]pyrrol-4-yl}-L-valinamide] was greater than 9.5 µM; that for `CC[C@H](N)C(=O)N[C@H]1CC[C@@H]2CN(c3ccc(C(F)(F)F)cc3)C[C@@H]21` [Example 755, (2S)-2-amino-N-{(3aR,4S,6aS)-2-[4-(trifluoromethyl)phenyl]octahydrocyclopenta[c]pyrrol-4-yl}butanamide] was greater than 3 µM.
Still for that read-out and setting: the value for `CC(C)(C)C[C@H](NC(=O)OC(C)(C)C)C(=O)N[C@H]1CC[C@@H]2CN(C(=O)[C@H](CC(C)(C)C)NC(=O)OC(C)(C)C)C[C@@H]21` [Example 463, tert-butyl(S)-1-((3aR,4S,6aS)-4-((S)-2-(tert-butoxycarbonylamino)-4,4-dimethylpentanamido)hexahydrocyclopenta[c]pyrrol-2(1H)-yl)-4,4-dimethyl-1-oxopentan-2-ylcarbamate] was 2.03 µM; that for `FC(F)(F)c1cccc(N2C[C@H]3CC[C@H](NCc4c[nH]c5ccccc45)[C@H]3C2)n1` [Example 684, (3aR,4S,6aS)-N-(1H-indol-3-ylmethyl)-2-[6-(trifluoromethyl)pyridin-2-yl]octahydrocyclopenta[c]pyrrol-4-amine] was 1.05 µM; that for `Cc1c(CN[C@H]2CC[C@@H]3CN(c4cccc(C(F)(F)F)n4)C[C@@H]32)[nH]c2ccc(F)cc12` [Example 667, (3aR,4S,6aS)-N-[(5-fluoro-3-methyl-1H-indol-2-yl)methyl]-2-[6-(trifluoromethyl)pyridin-2-yl]octahydrocyclopenta[c]pyrrol-4-amine] was 1.49 µM.
Consider `CC(C)C[C@@H](C(=O)N[C@@H]1CC[C@H]2CN(S(=O)(=O)C3CC3)C[C@H]21)N1CCCC1` [Example 347, (2S)-N-[(3aS,4R,6aR)-2-(cyclopropylsulfonyl)octahydrocyclopenta[c]pyrrol-4-yl]-4-methyl-2-pyrrolidin-1-ylpentanamide], for which the IC50 was greater than 5.2 µM.
Same read-out and setting: as for `O=C(N[C@H]1CC[C@H]2CN(CCCc3cccc(F)c3)C[C@H]21)C(C1CCCCC1)C1CCCCC1` [Example 68, 2,2-dicyclohexyl-N-{(3aS,4S,6aR)-2-[3-(3-fluorophenyl)propyl]octahydrocyclopenta[c]pyrrol-4-yl}acetamide], the figure is 0.82 µM; as for `CC(C)C[C@H](O)C(=O)N[C@H]1CC[C@@H]2CN(c3cccc(C(F)(F)F)n3)C[C@@H]21` [Example 567, (2S)-2-hydroxy-4-methyl-N-{(3aR,4S,6aS)-2-[6-(trifluoromethyl)pyridin-2-yl]octahydrocyclopenta[c]pyrrol-4-yl}pentanamide], 0.4 µM; as for `CC(C)C[C@@H](C(=O)N[C@H]1CC[C@@H]2CN(Cc3ccc(C(F)(F)F)cc3)C[C@@H]21)N(C)C(=O)OC(C)(C)C` [Example 308, tert-butyl methyl((S)-4-methyl-1-oxo-1-((3aR,4S,6aS)-2-(4-(trifluoromethyl)benzyl)octahydrocyclopenta[c]pyrrol-4-ylamino)pentan-2-yl)carbamate], 1.93 µM.
The same measure, in the same setting: the value for `CC(C)(C)C[C@H](NCC1CC1)C(=O)N[C@H]1CC[C@@H]2CN(c3ccc(C(F)(F)F)cn3)C[C@@H]21` [Example 478, N^2-(cyclopropylmethyl)-4-methyl-N^1-{(3aR,4S,6aS)-2-[5-(trifluoromethyl)pyridin-2-yl]octahydrocyclopenta[c]pyrrol-4-yl}-L-leucinamide] was 0.46 µM; that for `FC(F)(F)c1cccc(N2C[C@H]3CC[C@H](NCc4nc(-c5ccccc5)c[nH]4)[C@H]3C2)n1` [Example 746, (3aR,4S,6aS)-N-[(4-phenyl-1H-imidazol-2-yl)methyl]-2-[6-(trifluoromethyl)pyridin-2-yl]octahydrocyclopenta[c]pyrrol-4-amine] was 1.71 µM.
Same read-out and setting: as for `CCCC(C(=O)NC1CCC2CN(Cc3ccc(F)cc3)CC21)N(C)C(=O)OC(C)(C)C` (single isomer, unassigned) [Example 315], the figure is 5.36 µM; as for `Cc1cccc(N2C[C@H]3CC[C@H](NC(=O)[C@@H]4C[C@@H](F)CN4)[C@H]3C2)c1` [Example 642, (4R)-4-fluoro-N-[(3aR,4S,6aS)-2-(3-methylphenyl)octahydrocyclopenta[c]pyrrol-4-yl]-L-prolinamide], 15.6 µM.
Consider `O=C(N[C@H]1CC[C@@H]2CN(c3cccc(Cl)c3)C[C@@H]21)[C@@H]1C[C@@H](F)CN1` [Example 643, (4R)-N-[(3aR,4S,6aS)-2-(3-chlorophenyl)octahydrocyclopenta[c]pyrrol-4-yl]-4-fluoro-L-prolinamide], for which the IC50 is 3.57 µM.
For `CN[C@@H](CC(C)C)C(=O)N[C@H]1CC[C@@H]2CN(c3ccc(SC(F)(F)F)cc3)C[C@@H]21` [Example 707, N^2-methyl-N-[(3aR,4S,6aS)-2-{4-[(trifluoromethyl)thio]phenyl}octahydrocyclopenta[c]pyrrol-4-yl]-L-leucinamide], the concentration for half-maximal inhibition (IC50) is 7.26 µM.
Same read-out and setting: as for `CC(C)(C)[C@H](N)C(=O)N[C@@H]1CC[C@H]2CN(Cc3ccccc3)C[C@H]21` [Example 356, N^1-[(3aS,4R,6aR)-2-benzyloctahydrocyclopenta[c]pyrrol-4-yl]-3-methyl-L-valinamide], the figure is greater than 30 µM; as for `FC(F)(F)c1cccc(N2C[C@H]3CC[C@H](NCc4cc5cccnc5s4)[C@H]3C2)n1` [Example 727, (3aR,4S,6aS)-N-(thieno[2,3-b]pyridin-2-ylmethyl)-2-[6-(trifluoromethyl)pyridin-2-yl]octahydrocyclopenta[c]pyrrol-4-amine], 0.58 µM.

The assay is the same for the next values; noted with them: read-out: IC50 (μM) or percent inhibition (* indicates 3 minute incubation, otherwise 60 minute); IC50; 60 minute pre-incubation with compound; IMR32 cells, 80 mM KCl depolarization.
For the molecule `FC(F)(F)c1cccc(CN2C[C@@H]3CC[C@H](N(C4CC4)C4CC4)[C@@H]3C2)c1` (relative stereo) [Example 196, (3aS*,4S*,6aR*)-N,N-dicyclopropyl-2-[3-(trifluoromethyl)benzyl]octahydrocyclopenta[c]pyrrol-4-amine], the IC50 was determined as 3.18 µM.
Consider `CC(C)C[C@H](NC(=O)OC1CCCC1)C(=O)N[C@@H]1CC[C@H]2CN(Cc3cccc(C(F)(F)F)c3)C[C@H]21` [Example 179, cyclopentyl(S)-4-methyl-1-oxo-1-((3aS,4R,6aR)-2-(3-(trifluoromethyl)benzyl)octahydrocyclopenta[c]pyrrol-4-ylamino)pentan-2-ylcarbamate], for which the IC50 is 0.89 µM.
Still for that read-out and setting: the value for `CN[C@@H](CC(C)C)C(=O)N[C@@H]1CC[C@H]2CN(Cc3cccc(C(F)(F)F)c3)C[C@H]21` [Example 166, N^2-methyl-N^1-{(3aS,4R,6aR)-2-[3-(trifluoromethyl)benzyl]octahydrocyclopenta[c]pyrrol-4-yl}-L-leucinamide] was 2.72 µM.
For the molecule `CC(C)C[C@H](NC(=O)C(C)(C)C)C(=O)N[C@@H]1CC[C@H]2CN(Cc3cccc(C(F)(F)F)c3)C[C@H]21` [Example 177, N^2-(2,2-dimethylpropanoyl)-N^1-{(3aS,4R,6aR)-2-[3-(trifluoromethyl)benzyl]octahydrocyclopenta[c]pyrrol-4-yl}-L-leucinamide], the concentration for half-maximal inhibition (IC50) stood at 2.64 µM.
Still for that read-out and setting: as for `CC(C)C(C(=O)N[C@@H]1CC[C@H]2CN(Cc3ccccc3)C[C@H]21)c1ccccc1` (stereo partly drawn) [Example 18, N-[(3aS,4R,6aR)-2-benzyloctahydrocyclopenta[c]pyrrol-4-yl]-3-methyl-2-phenylbutanamide], the figure is 2.68 µM.
Consider “N^1-[(3aR,4S,6aS)-2-(4-fluorobenzyl)octahydrocyclopenta[c]pyrrol-4-yl]-N^2-methyl-L-norvalinamide [Example 378]”, for which the IC50 is greater than 30 µM.
For `CC(C)C(C(=O)N[C@H]1CC[C@@H]2CN(CCCCCC(c3ccc(F)cc3)c3ccc(F)cc3)C[C@@H]21)c1ccccc1` (stereo partly drawn) [Example 107, N-{(3aR,4S,6aS)-2-[6,6-bis(4-fluorophenyl)hexyl]octahydrocyclopenta[c]pyrrol-4-yl}-3-methyl-2-phenylbutanamide], the concentration for half-maximal inhibition (IC50) was 1.14 µM.
Consider `CC(C)C[C@@H](N)C(=O)N[C@@H]1CC[C@H]2CN(Cc3cccc(C(F)(F)F)c3)C[C@H]21` (relative stereo) [Example 162, N^1-{(3aS*,4R*,6aR*)-2-[3-(trifluoromethyl)benzyl]octahydrocyclopenta[c]pyrrol-4-yl}-D-leucinamide], for which the IC50 came out at 3.94 µM.
Still for that read-out and setting: the value for `O=C(N[C@@H]1CC[C@H]2CN(S(=O)(=O)c3ccc(F)cc3)C[C@H]21)[C@@H]1CCCCN1` [Example 399, (2S)-N-{(3aS,4R,6aR)-2-[(4-fluorophenyl)sulfonyl]octahydrocyclopenta[c]pyrrol-4-yl}piperidine-2-carboxamide] was 15.3 µM.
On the same count and under the same terms, the value for `O=C(N[C@H]1CC[C@@H]2CN(Cc3ccccc3)C[C@@H]21)C(c1ccccc1)C1CCCC1` (stereo partly drawn) [Example 34, N-[(3aR,4S,6aS)-2-benzyloctahydrocyclopenta[c]pyrrol-4-yl]-2-cyclopentyl-2-phenylacetamide] was 1.51 µM.
The same measure, in the same setting: the value for `CC(C)C(C(=O)N[C@H]1CC[C@@H]2CN(CCC(c3ccc(F)cc3)c3ccc(F)cc3)C[C@@H]21)c1ccccc1` (stereo partly drawn) [Example 117, N-{(3aR,4S,6aS)-2-[3,3-bis(4-fluorophenyl)propyl]octahydrocyclopenta[c]pyrrol-4-yl}-3-methyl-2-phenylbutanamide] was 0.88 µM.
